# According to the supplement of paper PMC13380429:
# Assays:
# Settings in all cases: 72 h
# Caco-2 [1] = assay: relative viability EC50 (midpoint between 100% and the lowest measured viability); higher = less toxic
# HepG2 [2] = assay: as above
# U2OS [3] = assay: as above
# Calu-3 [4] = assay: as above
# Vero E6 [5] = assay: as above
# Caco-2 [6] = assay: drug sensitivity score (DSS) for viability; higher = more toxic; extreme values may be limits of the assay
# HepG2 [7] = assay: as above
# U2OS [8] = assay: as above
# Calu-3 [9] = assay: as above
# Vero E6 [10] = assay: as above
# Caco-2 [11] = assay: cell viability relative to DMSO; higher = less toxic
# HepG2 [12] = assay: as above
# U2OS [13] = assay: as above
# Calu-3 [14] = assay: as above
# Vero E6 [15] = assay: as above
Compound,relative viability EC50 (Caco-2 [1]) [µM],relative viability EC50 (HepG2 [2]) [µM],relative viability EC50 (U2OS [3]) [µM],relative viability EC50 (Calu-3 [4]) [µM],relative viability EC50 (Vero E6 [5]) [µM],drug sensitivity score (Caco-2 [6]),drug sensitivity score (HepG2 [7]),drug sensitivity score (U2OS [8]),drug sensitivity score (Calu-3 [9]),drug sensitivity score (Vero E6 [10]),cell viability (Caco-2 [11]; 1 nM) [%],cell viability (Caco-2 [11]; 10 nM) [%],cell viability (Caco-2 [11]; 100 nM) [%],cell viability (Caco-2 [11]; 1000 nM) [%],cell viability (Caco-2 [11]; 10000 nM) [%],cell viability (HepG2 [12]; 1 nM) [%],cell viability (HepG2 [12]; 10 nM) [%],cell viability (HepG2 [12]; 100 nM) [%],cell viability (HepG2 [12]; 1000 nM) [%],cell viability (HepG2 [12]; 10000 nM) [%],cell viability (U2OS [13]; 1 nM) [%],cell viability (U2OS [13]; 10 nM) [%],cell viability (U2OS [13]; 100 nM) [%],cell viability (U2OS [13]; 1000 nM) [%],cell viability (U2OS [13]; 10000 nM) [%],cell viability (Calu-3 [14]; 1 nM) [%],cell viability (Calu-3 [14]; 10 nM) [%],cell viability (Calu-3 [14]; 100 nM) [%],cell viability (Calu-3 [14]; 1000 nM) [%],cell viability (Calu-3 [14]; 10000 nM) [%],cell viability (Vero E6 [15]; 1 nM) [%],cell viability (Vero E6 [15]; 10 nM) [%],cell viability (Vero E6 [15]; 100 nM) [%],cell viability (Vero E6 [15]; 1000 nM) [%],cell viability (Vero E6 [15]; 10000 nM) [%]
CCCOCCn1c(=O)c(N2CCN(CCO)CC2)nc2cnc(-c3ccc(OC)nc3)cc21,> 10,> 10,> 10,> 10,> 10,0.1,0,0,0,0,102,92.3,94.4,86.8,93.6,109,105,98.8,104,87.1,95.5,97.4,103,95.5,99.8,99.5,88.8,98.9,94.2,104,109,107,100,107,92.8
CCNC(=O)c1n[nH]c(-c2cc(Cl)c(O)cc2O)c1-c1ccc(OC)cc1,1.58,0.714,1.64,1.61,1.29,6.2,13.3,8.6,5.6,6.5,95.3,101,94.4,83.8,32.7,104,94.2,105,31.3,2,93.7,99.1,99.5,78.7,4.7,99.8,88.5,96.1,85.8,39.2,100,95.7,100,78.5,37.8
COC(=O)C(Cc1ccc(OCCn2c(=O)sc3cc(C(=O)c4ccccc4)ccc32)cc1)C(=O)OC,> 10,> 10,> 10,> 10,> 10,0,0,0,0,2.1,100,93,101,109,101,95.5,101,98.7,95.1,102,100,95.1,95.6,106,105,94.4,109,97.7,104,118,93.7,96.7,89.2,81.6,85.5
C[C@@H]1CN(Cc2ncccn2)C[C@H]1c1nc2c(cnn2C2CCOCC2)c(=O)[nH]1,> 10,> 10,> 10,> 10,> 10,0,0,0,0,0,94.4,92.4,96,94.7,107,99.2,94,100,96.5,107,98.2,102,102,103,99.9,98.5,100,105,111,93.7,93.6,97.7,93.7,96,103
Cc1ccc(-c2n[nH]c3c2C(c2cccc(O)c2)N(c2ccc(C(=O)O)cc2)C3=O)cc1 (stereo not given),> 10,> 10,> 10,> 10,> 10,0,0,0,0,0,93.4,99.2,87,100,100,111,101,114,93.4,103,90.5,96.2,99.1,99.7,98.1,92,105,98.6,99.9,88.2,102,104,101,95.8,101
Cn1c2c(c3ccccc31)CCNCC2,> 10,> 10,> 10,> 10,> 10,0,0,0,0,0,109,98.6,102,97.9,97.1,93,98.3,93.1,103,98.4,100,94.4,98.3,95.9,104,96.7,101,99.3,103,96.8,102,103,104,108,99.6
Cn1cc(C(=O)C(=O)N[C@H]2CN3CCC2CC3)c2ccccc21,> 10,> 10,> 10,> 10,> 10,0,0,0,0,0,95.7,99.6,104,99.9,110,108,94.2,114,95.3,96.9,96.8,107,99.2,101,96.1,99.9,102,98.9,100,94.5,112,114,105,97.9,98.5
N#Cc1cc(CN2CCC(Nc3ncnc4sc(Cl)cc34)CC2)ccc1F,> 10,1.4,> 10,> 10,> 10,0.8,7.1,0,0.2,0,98,98.7,91.2,98.8,79.7,97.6,97.3,107,78.6,29.1,96.9,98.6,96.3,103,89.1,104,106,103,97.7,87.7,102,98.1,103,102,93.4
"Clc1ccc(C(c2ccc(Cl)cc2)C(Cl)(Cl)Cl)cc1 [4,4'-DDT]",> 10,> 10,> 10,> 10,> 10,0,0,0,0,0,99.1,102,105,95.2,97.8,98.5,104,97.5,95.8,98.2,103,101,100,97.3,106,99.1,110,93,105,95.6,103,105,105,102,99.9
Cc1[nH]c2ccc(F)cc2c1-c1nc2c3cccnc3c3ncccc3c2[nH]1 [APTO-253],> 10,2.07,1.47,0.639,> 10,0.6,4.5,7,13,0,95.9,100,94.7,88.3,90.3,93.2,97.2,96.7,92.1,42,96.7,96.6,97.9,80.1,27.4,111,93.9,95.2,36.6,5.3,96.2,94.6,94,95.9,86.9
NC1=N[C@@](c2cccc(-c3cncnc3)c2)(c2ccnc(C(F)F)c2)c2cccc(F)c21 [AZD3839],> 10,> 10,> 10,> 10,> 10,0,0,0,0,0,107,102,101,96.1,97,108,103,106,118,97.3,95.4,99,106,97.9,94.5,102,98.4,99.7,98.7,109,110,106,99.9,102,104
CC(=O)N(O)C/C=C/c1cccc(Oc2ccccc2)c1 [BW-A4C],> 10,> 10,> 10,> 10,> 10,0,1.4,0.6,0,0,92.5,103,115,92.9,102,95.6,99.4,104,84.5,92.9,95.4,95.5,94.6,98.6,81.8,89.6,105,97.8,114,112,107,86.1,109,95.2,102
C=CC(=O)Nc1cccc(Nc2nc(Nc3ccc(NC4CN(CCF)C4)cc3OC)ncc2C(F)(F)F)c1 [CNX-2006],1.51,3.34,2.21,0.464,1.97,5.9,3.8,4.7,13.3,5.9,105,100,99.1,83.7,38.3,99.9,110,97.3,102,27.6,102,98.7,98.8,92.7,37.2,96.2,99.4,77.9,44.4,10,102,102,101,88.7,26.7
Nc1nc(Nc2ccccc2)nc2c1ncn2[C@@H]1O[C@H](CO)[C@@H](O)[C@H]1O [CV-1808],> 10,> 10,> 10,> 10,> 10,0,0,0,0,0,98.9,93,101,105,99.3,95.4,94.2,109,98.8,94.9,103,100,98.5,106,105,101,106,93,110,106,94,93,94.5,96.3,97.2
